Source: patent US4623639A (Hoffmann-La Roche Inc., priority 1983, dated 1986)
Structures can show the parent of a compound that is named as a salt.

Legend:
[1] = target: T1, Human granulocyte elastase (Homo sapiens, UniProt P08246); assay: Assay of the inhibition of human granulocyte elastase (succinyl (Ala)3-p-nitroanilide cleavage); type: biochemical; details: succinyl (Ala)3-p-nitroanilide substrate, 0.2M Tris HCl pH 8.0, 37° C., 1 hour; read-out: IC50 (concentration required to give 50% inhibition)
T1 sequence (P08246 30-267): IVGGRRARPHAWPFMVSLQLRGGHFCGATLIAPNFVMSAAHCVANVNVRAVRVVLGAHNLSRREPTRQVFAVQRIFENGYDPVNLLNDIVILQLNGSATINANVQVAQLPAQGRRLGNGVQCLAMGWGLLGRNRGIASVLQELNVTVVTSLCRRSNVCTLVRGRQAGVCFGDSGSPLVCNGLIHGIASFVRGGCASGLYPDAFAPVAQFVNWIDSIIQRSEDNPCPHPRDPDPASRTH
Method: ASSAY OF THE INHIBITION OF HUMAN GRANULOCYTE ELASTASE TEST METHOD
This assay is based on the method of J. Bieth, B. Spiess and C. G. Wermuth, Biochem. 11, (1974), 350.
Succinyl (Ala)3 -p-nitroanilide (20 μl of a 125 mM solution in N-methylpyrrolidone) was diluted in buffer (3 ml, 0.2M Tris HCl, pH 8.0) and warmed to 37° C. Human granulocyte elastase (4 μg in 20 μl of buffer) was added to initiate the reaction, which was terminated after 1 hour at 37° C. by the addition of glacial acetic acid (100 μl). The p-nitroaniline released was determined by measuring the extinction of the solution at 410 nm by means of a spectrophotometer. The compounds of the present invention, in 50 μl of methanol, were added to the buffered substrate prior to the addition of the human granulocyte elastase and the substrate cleavage rate was compared with solvent controls. The concentration of compound of the present invention required to give 50% inhibition was determined.

male mice = assay: Maximum tolerated dose test (no gross behavioural effects); type: in vivo; details: observed 6 hours and 24 hours after administration
Method: MAXIMUM TOLERATED DOSE TEST TEST METHOD
This test determines the maximum acute dose of a compound of this invention which causes no gross behavioural effects.
Groups of 3 male mice are administered 400 mg/kg and 100 mg/kg of a compound of this invention subcutaneously, intravenously or intraperitoneally. The mice are observed periodically during the 6 hours after the administration and 24 hours after the administration. Evidence of stimulation, sedation, loss of righting reflex, convulsions, tremor, death and other gross effects are noted. If effects are observed, the compound is tested at lower dosages in order to determine the no gross effect level. The results are expressed as the maximum dose administered in mg/kg which causes no gross behavioural effects.

| Structure (SMILES) | IC50 [1] [nM] | dosage at which no behavioural effects were observed (male mice; intraperitoneally) [mg/kg] | dosage at which no behavioural effects were observed (male mice; intravenously) [mg/kg] | dosage at which no behavioural effects were observed (male mice; subcutaneously) [mg/kg] |
| --- | --- | --- | --- | --- |
| CC(C)[C@@H](C=O)NC(=O)[C@@H]1CCCN1C(=O)[C@H](CCCCNC(=O)c1ccccc1C(=O)O)NS(=O)(=O)C12CC3CC(CC(C3)C1)C2 [N^α -(1-adamantylsulphonyl)-N^ε -(2-carboxybenzoyl)-L-lysyl-L-prolylvalinal] | 90 | – | – | – |
| CC(C)[C@@H](C=O)NC(=O)[C@@H]1CCCN1C(=O)[C@H](CCCCNC(=O)c1ccc(C(=O)O)cc1)NS(=O)(=O)C12CC3CC(CC(C3)C1)C2 [N^α -(1-adamantylsulphonyl)-N^ε -(4-carboxybenzoyl)-L-lysyl-L-prolyl-L-valinal] | 60 | 100 | 100 | 400 |
| CC(C)[C@@H](C=O)NC(=O)[C@H](C)NC(=O)[C@H](CCCCNC(=O)CCC(=O)O)NS(=O)(=O)C12CC3CC(CC(C3)C1)C2 [N^α -(1-adamantylsulphonyl)-N^ε -succinyl-L-lysyl-L-alanylvalinal] | 120 | – | – | – |
| CC(C)[C@@H](C=O)NC(=O)[C@@H]1CCCN1C(=O)[C@H](CCCCNC(=O)CCCCC(=O)O)NS(=O)(=O)C12CC3CC(CC(C3)C1)C2 [N^α -(1-adamantylsulphonyl)-N^ε -adipoyl-L-lysyl-L-prolylvalinal] | 80 | – | – | – |
| CC(C)[C@@H](C=O)NC(=O)[C@H](C)NC(=O)[C@H](CCCCNC(=O)c1ccc(C(=O)O)cc1)NS(=O)(=O)C12CC3CC(CC(C3)C1)C2 [N^α -(1-adamantylsulphonyl)-N^ε -(4-carboxybenzoyl)-L-lysyl-L-alanyl-L-valinal] | 50 | 100 | 100 | 400 |
| CC(C)CNC(=O)[C@@H]1CCCN1C(=O)[C@H](CCCCNC(=O)CCC(=O)O)NCCC12CC3CC(CC(C3)C1)C2 [N^α -(1-adamantylethyl)-N^ε -succinyl-L-lysyl-L-proline isobutylamide] | 4500 | 50 | – | – |
| CC(C)CNC(=O)[C@@H]1CCCN1C(=O)[C@H](CCCCNC(=O)CC[C@H](N)C(=O)O)NCCC1CCC2CC1C2(C)C (some centres unmarked) [dihydrobromide] | 16000 | – | – | – |
| CC(C)[C@@H](C=O)NC(=O)[C@@H]1CCCN1C(=O)[C@H](CCCCNC(=O)CCC(=O)O)NS(=O)(=O)C12CC3CC(CC(C3)C1)C2 [N^α -(1-adamantylsulphonyl)-N^ε -succinyl-L-lysyl-L-prolyl-L-valinal] | 80 | – | 100 | 400 |
